In PubChem BioAssay AID256 (DTP/NCI, 2004):
Several values for one entry are separate records, joined by “and”; a condition that tells them apart may be missing. Identical values can stand only once. Toxic doses and inconclusive results are not listed.

Test system: CD2F1 mice, L1210 leukemia ip, survival T/C
Experiment: NCI In Vivo Anticancer Drug Screen. Data for tumor model L1210 Leukemia (intraperitoneal) in CD2F1 (CDF1) mice
Conditions: higher = longer survival
Method in brief: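 Vehicle-treated tumor-bearing mice served as controls (C) for compound-treated mice (T). Reported figure is T divided by C.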

[1] = endpoint: mean survival time, dose: 50.0 mg/kg/injection, schedule: Q01DX009 (ip), vehicle: saline with Tween-80
[2] = endpoint: mean survival time, dose: 100.0 mg/kg/injection, schedule: Q01DX009 (ip), vehicle: saline with Tween-80
[3] = endpoint: mean survival time, dose: 100.0 mg/kg/injection, schedule: Q04DX003 (ip), vehicle: saline with Tween-80
[4] = endpoint: mean survival time, dose: 200.0 mg/kg/injection, schedule: Q04DX003 (ip), vehicle: saline with Tween-80
[5] = endpoint: mean survival time, dose: 25.0 mg/kg/injection, schedule: Q01DX009 (ip), vehicle: saline with Tween-80
[6] = endpoint: mean survival time, dose: 200.0 mg/kg/injection, schedule: Q01DX009 (ip), vehicle: saline with Tween-80
[7] = endpoint: mean survival time, dose: 400.0 mg/kg/injection, schedule: Q04DX003 (ip), vehicle: saline with Tween-80

CCC(C)C(CO)c1ccccc1 (stereo not given)
T/C [1]: 98 % of control
T/C [2]: 88 % of control

CC12CCC(=O)C=C1CCC1C2CCC2(C)C(C(=O)O)CCC12 (stereo not given)
T/C [3]: 102 % of control
T/C [4]: 96 % of control

CCC1(O)C(=O)OCc2c1cc1n(c2=O)Cc2cc3cc(Cl)ccc3nc2-1 (stereo not given)
T/C (endpoint: median survival time, dose: 5.0 mg/kg/injection, schedule: Q04DX002 (ip), vehicle: saline with Tween-80): 196 % of control
T/C (endpoint: median survival time, dose: 10.0 mg/kg/injection, schedule: Q04DX002 (ip), vehicle: saline with Tween-80): 264 % of control and 280 % of control
T/C (endpoint: median survival time, dose: 40.0 mg/kg/injection, schedule: Q04DX002 (ip), vehicle: saline with Tween-80): 89 % of control

CCCCCCCCCCCCOC(=O)C[n+]1cccc(C(=O)Nc2ccc(Cl)cc2)c1
T/C [5]: 101 % of control
T/C [1]: 96 % of control
T/C [3]: 103 % of control

CN(C)c1ccc(/C=C/c2cc[n+](C)cc2)cc1
T/C (endpoint: mean survival time, dose: 4.0 mg/kg/injection, schedule: Q01DX009 (ip), vehicle: saline): 97 % of control
T/C (endpoint: mean survival time, dose: 8.0 mg/kg/injection, schedule: Q01DX009 (ip), vehicle: saline): 94 % of control

O=C(c1ccccc1)C(C(O)CCl)C(O)(C(F)(F)F)C(F)(F)F (stereo not given)
T/C [2]: 94 % of control
T/C [6]: 94 % of control

CC(C)(CO)COS(=O)(=O)c1ccc(Br)cc1
T/C (endpoint: mean survival time, dose: 12.5 mg/kg/injection, schedule: Q01DX009 (ip), vehicle: saline with Tween-80): 95 % of control
T/C [5]: 95 % of control
T/C [1]: 95 % of control

CC1(CNC(=O)C(=O)NCC2(C)CO2)CO1 (stereo not given)
T/C (endpoint: mean survival time, dose: 22.0 mg/kg/injection, schedule: Q01DX Z (ip), vehicle: saline): 122 % of control
T/C (endpoint: mean survival time, dose: 150.0 mg/kg/injection, schedule: Q01DX010 (ip), vehicle: saline): 113 % of control
T/C (endpoint: mean survival time, dose: 225.0 mg/kg/injection, schedule: Q01DX010 (ip), vehicle: saline): 106 % of control

COc1ccc2c(c1O)CNCC2O (stereo not given)
T/C (endpoint: mean survival time, dose: 100.0 mg/kg/injection, schedule: Q01DX001 (ip), vehicle: saline): 102 % of control
T/C (endpoint: mean survival time, dose: 200.0 mg/kg/injection, schedule: Q01DX001 (ip), vehicle: saline): 101 % of control
T/C (endpoint: mean survival time, dose: 400.0 mg/kg/injection, schedule: Q01DX001 (ip), vehicle: saline): 101 % of control

CCc1ccc(NC(=O)c2cccc(Cl)c2)cc1
T/C [2]: 93 % of control
T/C [3]: 95 % of control
T/C [6]: 109 % of control
T/C [4]: 98 % of control
T/C (endpoint: mean survival time, dose: 400.0 mg/kg/injection, schedule: Q01DX009 (ip), vehicle: saline with Tween-80): 98 % of control
T/C [7]: 98 % of control

CC(C)CCCC(C)C1CCC2C3CCC45CC4C(=O)CCC5(C)C3CCC12C (stereo not given)
T/C (endpoint: mean survival time, dose: 100.0 mg/kg/injection, schedule: Q04DX003 (ip), vehicle: acetone): 102 % of control
T/C [3]: 91 % of control
T/C (endpoint: mean survival time, dose: 200.0 mg/kg/injection, schedule: Q04DX003 (ip), vehicle: acetone): 93 % of control
T/C [4]: 93 % of control
T/C (endpoint: mean survival time, dose: 400.0 mg/kg/injection, schedule: Q04DX003 (ip), vehicle: acetone): 89 % of control
T/C [7]: 95 % of control

C[NH-].C[NH-].[Br][Pt][Br].[CH3-].[CH3-]
T/C (endpoint: mean survival time, dose: 1.56 mg/kg/injection, schedule: Q04DX003 (ip), vehicle: saline with Tween-80): 97 % of control
T/C (endpoint: mean survival time, dose: 3.13 mg/kg/injection, schedule: Q04DX003 (ip), vehicle: saline with Tween-80): 97 % of control
T/C (endpoint: mean survival time, dose: 6.25 mg/kg/injection, schedule: Q04DX003 (ip), vehicle: saline with Tween-80): 104 % of control
T/C (endpoint: mean survival time, dose: 12.5 mg/kg/injection, schedule: Q04DX003 (ip), vehicle: saline with Tween-80): 93 % of control
T/C (endpoint: mean survival time, dose: 25.0 mg/kg/injection, schedule: Q04DX003 (ip), vehicle: saline with Tween-80): 89 % of control and 93 % of control
T/C (endpoint: mean survival time, dose: 50.0 mg/kg/injection, schedule: Q04DX003 (ip), vehicle: saline with Tween-80): 102 % of control
T/C [3]: 100 % of control
T/C [4]: 98 % of control
T/C [7]: 94 % of control

O=c1ccc(OS(=O)(=O)c2ccccc2)n[nH]1
T/C (endpoint: mean survival time, dose: 100.0 mg/kg/injection, schedule: Q04DX002 (ip), vehicle: saline with Tween-80): 95 % of control
T/C (endpoint: mean survival time, dose: 200.0 mg/kg/injection, schedule: Q04DX002 (ip), vehicle: saline with Tween-80): 87 % of control
T/C (endpoint: mean survival time, dose: 400.0 mg/kg/injection, schedule: Q04DX002 (ip), vehicle: saline with Tween-80): 104 % of control

C/C(=C\c1ccccc1)CCC(=O)O
T/C (endpoint: mean survival time, dose: 50.0 mg/kg/injection, schedule: Q04DX003 (ip), vehicle: saline): 100 % of control
T/C (endpoint: mean survival time, dose: 100.0 mg/kg/injection, schedule: Q04DX003 (ip), vehicle: saline): 103 % of control
T/C (endpoint: mean survival time, dose: 200.0 mg/kg/injection, schedule: Q04DX003 (ip), vehicle: saline): 97 % of control
